Here are results for 24 compounds from US20220370625A1, “THERAPEUTIC CONJUGATES” (Totus Medicines Inc., priority 2019, published 2022).

One assay addresses T1, estrogen receptor (Homo sapiens, UniProt P03372).
T1 construct: expressed in transfected cells; host or cells: HEK293 (Gibco 293-H), transient transfection with FuGENE HD
T1 sequence (P03372 1-595): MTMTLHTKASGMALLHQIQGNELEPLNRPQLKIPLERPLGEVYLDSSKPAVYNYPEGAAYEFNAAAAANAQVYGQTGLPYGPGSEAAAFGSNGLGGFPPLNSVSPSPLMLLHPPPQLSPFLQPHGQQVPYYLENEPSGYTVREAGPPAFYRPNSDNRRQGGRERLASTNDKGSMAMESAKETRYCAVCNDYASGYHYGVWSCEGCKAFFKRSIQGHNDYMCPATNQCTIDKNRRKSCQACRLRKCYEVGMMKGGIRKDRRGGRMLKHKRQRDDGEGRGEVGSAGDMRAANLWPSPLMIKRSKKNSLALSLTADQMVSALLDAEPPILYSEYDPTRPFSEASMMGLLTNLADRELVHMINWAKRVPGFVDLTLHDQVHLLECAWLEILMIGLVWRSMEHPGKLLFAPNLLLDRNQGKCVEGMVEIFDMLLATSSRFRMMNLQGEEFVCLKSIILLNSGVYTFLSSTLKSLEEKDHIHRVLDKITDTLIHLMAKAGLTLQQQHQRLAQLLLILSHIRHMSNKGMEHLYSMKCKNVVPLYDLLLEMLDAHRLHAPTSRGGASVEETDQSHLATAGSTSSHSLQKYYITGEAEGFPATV
The experiment in a line: NanoBRET screening of ARCS (binding assay with washout) in transfected HEK293 cells. Particulars: HEK293 cells transfected with NanoLuc-target fusion, estrogen receptor. As for the experimental part: Human embryonic kidney 293-H (HEK 293, Gibco 293-H, #11631017) cell lines are maintained in Dulbecco's Modified Eagle Medium, high glucose, pyruvate (DMEM, Gibco, #11995065) supplemented with 10% fetal bovine serum (FBS, Gibco, #10082147) and 1× penicillin-streptomycin (100× solution, Gibco, #15140148) at 37° C. and 5% CO2 in a water-saturated incubator. Cell are trypsinized using 0.05% or 0.25% Trypsin-EDTA solution (Trypsin-EDTA, phenol red, Gibco, #25200056 (0.25%) or #25300054). Opti-MEM media supplemented with 10% fetal bovine serum (Opti-MEM I reduced serum media, no phenol red, Gibco, #11058021) is used for culturing cells overnight for NanoBRET readout experiments.
HEK293 cells are cultivated appropriately prior to assay. The medium from cell flask is removed via aspiration, washed 1× with PBS followed by aspiration, trypsinized, and cells are allowed to dissociate from the flask. Trypsin is neutralized using growth medium and cells are pelleted via centrifugation at 200×g for 5 minutes. The medium is aspirated and the cells are resuspended into a single cell suspension using Opti-MEM I supplemented with 10% FBS. The cell density is adjusted to 2×10^5/mL in Opti-MEM I supplemented with 10% FBS in a sterile, conical tube. The cells are transfected and aliquoted directly in a 96-well plate for the NanoBRET assay the next day, and therefore, the cells are cultured overnight in Opti-MEM. The cells are also transfected in bulk and dispensed into a 96-well plate to allow cells to adhere to the plate overnight, thereby enabling washout studies.
The lipid:DNA complexes are prepared as follows:
A 10 μg/mL solution of DNA is prepared in Opti-MEM without serum. This solution contains the following ratios of carrier DNA and DNA encoding NanoLuc fused to the biological target. Serial dilution steps may be warranted to accurately dilute the NanoLuc fusion DNA. Added, in order, the following reagents to a sterile polystyrene test tube: 1 mL of Opti-MEM without phenol red; 9.0 μg/mL of carrier DNA; 1.0 μg/mL of NanoLuc fusion DNA (for some targets, the amount is less). The reagents are mixed thoroughly. 30 μL of FuGENE HD is added into each mL of DNA mixture to form lipid:DNA complex. […] It is mixed by pipetting up and down 5-10 times and incubated at room temperature for 20 minutes to allow complexes to form. 1 part (e.g. 1 mL) of lipid:DNA complex is mixed with 20 parts (e.g. 20 mL) of HEK293 cells in suspension at 2×10^5/mL and mixed gently by pipetting up and down 5 times in a sterile, conical tube. Larger or smaller bulk transfections are scaled accordingly, using this ratio. 100 μL cells+lipid:DNA complex is dispensed into a sterile, tissue-culture treated 96-well plate (20,000 cells/well), and incubated at least 16 hours to allow expression. The cells are incubated in a 37° C.+5% CO2 incubator for >16 hrs. A serially diluted inhibitor or test compound is prepared at 100× final concentration in 100% DMSO. The serially diluted inhibitor stock is prepared in PCR plates. 1 μL per well of 100× serially diluted inhibitor/test compound is added to the cells in 96-well plates that have been transiently transfected overnight and mixed by tapping the plate by hand. The plate is incubated at 37° C.+5% CO2 incubator overnight. A 1× solution of substrate mix (500× stock) and appropriate concentration of tracer is prepared in Opti-Mem. The cells are washed by setting a plate washer to the 96 well plate 5× in PBS pH 7.4 by adding 200 μL PBS each time. The cells are incubated at 37° C. for 2 hours. 100 μL of the 1× Substrate-Tracer solution is added and the 96 well plate is gently tapped to mix. The plate on plate reader is read every hour for the next 6 hours.
The binding assays of some ARCS are shown below. Compound 2-314 formed a covalent bond with an estrogen receptor of <20%. Compounds 2-302 and 2-303 formed a covalent bond with an estrogen receptor from about 50% to 70%. […]
For `CC1Cc2c([nH]c3ccccc23)C(c2c(F)cc(OCCNCC=CC(=O)N(C)C)nc2F)N1CC(C)(C)F` (centres unmarked) [Compound 2-102], the “Binding Potential (Percent inhibition)” value is listed as “+++ (+++ 80-90%)”.

Turning to `CC1Cc2c([nH]c3ccccc23)C(c2c(F)cc(OCCNCC=CC(=O)N(C)C)cc2F)N1CC(C)(C)F` (centres unmarked) [Compound 2-103], the “Binding Potential (Percent inhibition)” value is reported as “++++ (++++ >90%)”.

For `C[C@@H]1Cc2c([nH]c3ccccc23)[C@@H](c2c(F)cc(OCCNC/C=C/C(=O)N(C)C)cc2F)N1CC(C)(F)CO` (some centres unmarked) [Compound 2-106], the “Binding Potential (Percent inhibition)” value is “++++ (++++ >90%)”.

Consider `CC1Cc2c([nH]c3ccccc23)C(c2ccc(NCCNCC=CC(=O)N(C)C)nc2)N1CC(C)(C)F` (centres unmarked) [Compound 2-107], for which the “Binding Potential (Percent inhibition)” value was “+++ (+++ 80-90%)”.

Consider `CC1Cc2c([nH]c3ccccc23)C(c2c(F)cc(NCCNCC=CC(=O)N(C)C)nc2F)N1CC(C)(C)F` (centres unmarked) [Compound 2-108], for which the “Binding Potential (Percent inhibition)” value was “+++ (+++ 80-90%)”.

For `CC1Cc2c([nH]c3ccccc23)C(c2c(F)cc(NCCNCC=CC(=O)N(C)C)cc2F)N1CC(C)(C)F` (centres unmarked) [Compound 2-109], the “Binding Potential (Percent inhibition)” value is recorded as “+++ (+++ 80-90%)”.

In the case of `CC1Cc2c([nH]c3cc(F)ccc23)C(c2c(F)cc(OCCNCC=CC(=O)N(C)C)cc2F)N1CC(C)(C)F` (centres unmarked) [Compound 2-115], the “Binding Potential (Percent inhibition)” value was “++++ (++++ >90%)”.

`CC1Cc2c([nH]c3cc(F)ccc23)C(c2c(F)cc(OCCNCC=CC(=O)N(C)C)cc2F)N1CC(C)(F)CO` (centres unmarked) [Compound 2-118]: the “Binding Potential (Percent inhibition)” value is “++++ (++++ >90%)”.

Consider `C#CCCCNC(=O)C=CCNCCOc1cc(F)c(C2c3[nH]c4ccccc4c3CC(C)N2CC(C)(C)F)c(F)c1` (centres unmarked) [Compound 2-300], for which the “Binding Potential (Percent inhibition)” value is on record as “+++ (+++ 80-90%)”.

As to `CC1Cc2c([nH]c3ccccc23)C(c2c(F)cc(N)cc2F)N1CC(C)(C)F` (centres unmarked) [Compound 2-301], the “Binding Potential (Percent inhibition)” value is “+++ (+++ 80-90%)”.

Take `CC1Cc2c([nH]c3ccccc23)C(c2ccc(C=CCNCC=CC(=O)N(C)C)nc2)N1CC(C)(C)F` (centres unmarked) [Compound 2-302]: the “Binding Potential (Percent inhibition)” value is “++ (++ 50-70%)”.

Regarding `CC1Cc2c([nH]c3ccccc23)C(c2c(F)cc(C=CCNCC=CC(=O)N(C)C)cc2F)N1CC(C)(C)F` (centres unmarked) [Compound 2-303], the “Binding Potential (Percent inhibition)” value was “++ (++ 50-70%)”.

Turning to `CC1Cc2c([nH]c3ccccc23)C(c2c(F)cc(C=CCNCC=CC(=O)N(C)C)nc2F)N1CC(C)(C)F` (centres unmarked) [Compound 2-304], the “Binding Potential (Percent inhibition)” value was “++++ (++++ >90%)”.

`C=CC(=O)NCCc1ccc(C2c3[nH]c4ccccc4c3CC(C)N2CC(C)(C)F)cn1` (centres unmarked) [Compound 2-305]: the “Binding Potential (Percent inhibition)” value is reported as “++++ (++++ >90%)”.

In the case of `C=CC(=O)NCCc1cc(F)c(C2c3[nH]c4ccccc4c3CC(C)N2CC(C)(C)F)c(F)n1` (centres unmarked) [Compound 2-306], the “Binding Potential (Percent inhibition)” value is “++++ (++++ >90%)”.

With `C=CC(=O)NCCc1cc(F)c(C2c3[nH]c4ccccc4c3CC(C)N2CC(C)(C)F)c(F)c1` (centres unmarked) [Compound 2-307], the “Binding Potential (Percent inhibition)” value was “++++ (++++ >90%)”.

With `CC#CC(=O)NCCc1ccc(C2c3[nH]c4ccccc4c3CC(C)N2CC(C)(C)F)cn1` (centres unmarked) [Compound 2-308], the “Binding Potential (Percent inhibition)” value is given as “++++ (++++ >90%)”.

As to `CC#CC(=O)NCCc1cc(F)c(C2c3[nH]c4ccccc4c3CC(C)N2CC(C)(C)F)c(F)n1` (centres unmarked) [Compound 2-309], the “Binding Potential (Percent inhibition)” value is listed as “++++ (++++ >90%)”.

As for `CC#CC(=O)NCCc1cc(F)c(C2c3[nH]c4ccccc4c3CC(C)N2CC(C)(C)F)c(F)c1` (centres unmarked) [Compound 2-310], the “Binding Potential (Percent inhibition)” value is “++++ (++++ >90%)”.

With `C#CCN(C)C(=O)C=CCNCCOc1cc(F)c(C2c3[nH]c4ccccc4c3CC(C)N2CC(C)(C)F)c(F)c1` (centres unmarked) [Compound 2-311], the “Binding Potential (Percent inhibition)” value was “++++ (++++ >90%)”.

For the compound `CC1Cc2c([nH]c3ccccc23)C(c2ccc(N)cc2)N1CC(C)(C)F` (centres unmarked) [Compound 2-312], the “Binding Potential (Percent inhibition)” value is recorded as “++++ (++++ >90%)”.

In the case of `CC1Cc2c([nH]c3ccccc23)C(c2ccc(N)nc2)N1CC(C)(C)F` (centres unmarked) [Compound 2-314], the “Binding Potential (Percent inhibition)” value is recorded as “+ (+ <20%)”.

Turning to `CC1Cc2c([nH]c3ccccc23)C(c2ccc(OCCNCC=CC(=O)N(C)C)nc2)N1CC(C)(C)F` (centres unmarked) [Compound 2-315], the “Binding Potential (Percent inhibition)” value is listed as “++++ (++++ >90%)”.

In the case of `C=CC(=O)NCCOc1ccc(C2c3[nH]c4ccccc4c3CC(C)N2CC(C)(C)F)cn1` (centres unmarked) [Compound 2-316], the “Binding Potential (Percent inhibition)” value was “++++ (++++ >90%)”.

Still in this assay, the particulars now being: HEK293 cells transfected with NanoLuc-target fusion, overnight incubation, washout.
Regarding `CC1Cc2c([nH]c3ccccc23)C(c2ccc(N)nc2)N1CC(C)(C)F` (centres unmarked) [Compound 2-314], the “activity of an estrogen receptor is inhibited” value was less than 20% and the “formed a covalent bond with an estrogen receptor” value is less than 20%.
